Patent US9060541B2, “Sterilizer for foods” (Kawakami Co., Ltd., priority 2009, dated 2015)
Read-outs that look alike come from different tables or passages of the source.

Legend:
Type in all cases: cell-based
Set-up in all cases: key: D: There is no sterilization effect.; C: There is a sterilization effect in step (1) but no sterilization effect in step (2).; B: There is a sterilization effect up to step (2) but no sterilization effect in step (3).; A: There is a sterilization effect up to step (3)
Shigella sonnei KX-H285 = assay: Comparison test of sterilization effects against various food poisoning microbes
[1] = test system: Shigella boydii serotype 4 KX-H288; assay: as above
[2] = test system: Plesiomonas shigelloides KX-P1945; assay: as above
[3] = test system: Lactobacillus plantarum RIMD 1202001; assay: as above
[4] = test system: Enteroaggregative Escherichia coli O111:H21 K-H-6; assay: as above
[5] = test system: Enteroinvasive Escherichia coli O28ac KX-E63; assay: as above
Aeromonas sobria KX-A435 = assay: as above
[6] = test system: Salmonella serotype Stanley KX-S141; assay: as above
Bacillus cereus Kyoto 1 = assay: as above
[7] = test system: Enteropathogenic Escherichia coli O55 KX-E59; assay: as above
[8] = test system: Staphylococcus aureus 080392-1 Toxin type A; assay: as above
[9] = test system: Shigella flexneri subtype 1b KX-H273; assay: as above
[10] = test system: Shigella dysenteriae serotype 2 KX-H214
[11] = test system: Salmonella serotype Krefeld KX-S124; assay: Comparison test of sterilization effects against various food poisoning microbes
[12] = test system: Vibrio parahaemolyticus AQ3815; assay: as above
[13] = Table 7, test microbe solution without yeast extract
[14] = Table 8, yeast extract 4 weight % blended in test microbe solution

Compound	Sterilization effect (Shigella sonnei KX-H285; [13])	Sterilization effect (Shigella sonnei KX-H285; [14])	Sterilization effect [1, 13]	Sterilization effect [1, 14]	Sterilization effect [2, 13]	Sterilization effect [2, 14]	Sterilization effect [3, 13]	Sterilization effect [3, 14]	Sterilization effect [4, 13]	Sterilization effect [4, 14]	Sterilization effect [5, 13]	Sterilization effect [5, 14]	Sterilization effect (Aeromonas sobria KX-A435; [13])	Sterilization effect (Aeromonas sobria KX-A435; [14])	Sterilization effect [6, 13]	Sterilization effect [6, 14]	Sterilization effect (Bacillus cereus Kyoto 1; [13])	Sterilization effect (Bacillus cereus Kyoto 1; [14])	Sterilization effect [7, 13]	Sterilization effect [7, 14]	further results
CCO [EtOH 30%, ethanol]	C	C	D	D	B	B	C	D	D	D	C	C	B	C	C	C	C	D	D	D	Sterilization effect [8, 13]: B; Sterilization effect [8, 14]: D; Sterilization effect [9, 13]: C; Sterilization effect [9, 14]: D; Sterilization effect [10, 13]: C; Sterilization effect [10, 14]: C; Sterilization effect [11, 13]: C; Sterilization effect [11, 14]: C; Sterilization effect [12, 13]: B; Sterilization effect [12, 14]: C
[Na+].[O-]Cl [S.H 150 ppm, sodium hypochlorite]	A	D	A	D	A	C	A	D	A	D	A	D	A	D	A	D	A	D	A	D	Sterilization effect [8, 13]: A; Sterilization effect [8, 14]: D; Sterilization effect [9, 13]: A; Sterilization effect [9, 14]: D; Sterilization effect [10, 13]: A; Sterilization effect [10, 14]: C; Sterilization effect [11, 13]: A; Sterilization effect [11, 14]: D; Sterilization effect [12, 13]: A; Sterilization effect [12, 14]: C
